Consider nine molecules from patent publication US12344610B2, “APOL1 inhibitors and methods of use” (Maze Therapeutics, Inc., priority 2022, dated 2025).

What all share (assay type): cell-based
Experiment [1] has as its system HEK293 cells overexpressing APOL1 G2. In words: APOL1 G2 HEK293 cell rescue assay (reversal of cell death caused by overexpression of APOL1). As to conditions: geometric mean of at least 2 assay runs, † = single assay run. The method in brief: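 EC50 is the half-maximal effective concentration for reversing cell death driven by APOL1 G2 overexpression in HEK293 cells. Reported as geometric mean of at least 2 runs on separate days, each run averaging duplicate wells per plate; some values from a single run.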

In experiment [2] the test system is HEK293 clonal cell line overexpressing APOL1 G1. The experiment is described as follows: APOL1 G1 HEK293 cell rescue assay (Example B3). To be noted: geometric mean of at least 2 runs, † = single run, ¥ = concentration at 50% rescue estimated (no sigmoidal curve). In outline: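 HEK293 clonal line overexpressing APOL1 G1; EC50 is half-maximal reversal of APOL1-induced cell death. Values are the geometric mean of ≥2 runs on separate days, each run the average of duplicate wells. Where no sigmoidal curve could be fitted, the concentration giving 50% rescue was estimated.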

Experiment [3] relates to Trypanosoma brucei Lister 427 VSG221 with APOL1 G0 recombinant protein. In words: APOL1 G0 trypanosome cell rescue assay (Example B5). To be noted: geometric mean of at least 2 assay runs, † = single assay run. Here is the method: (§1) APOL1 G0/G1/G2 viability assay for measurement of cytotoxicity reversal by compound in trypanosomes (APOL1 G0/G1/G2 trypanosome cell rescue assay).
(§2) APOL1 protein expression and purification. The mature from of APOL1 proteins, residues 28-398, were expressed from a pET28a vector with an N-terminal His-tag and TEV cleavage site. Proteins were expressed in Escherichia coli BL21-CodonPlus (DE3)-RIPL cells. Liter cultures of terrific broth were grown at 37° C. until an OD600 of ˜0.8 was reached and then induced with isopropyl β-D-1-thiogalactopyranoside (IPTG; final concentration of 500 μM). Afterwards, cultures were grown for 3 hours at 37° C. For protein purification, cell pellets were resuspended in lysis buffer (50 mM Tris, pH 8.5, 5 mM EDTA, 0.5 mM DTT, 0.5 mM PMSF) supplemented with a cocktail of protease inhibitors. Cells were lysed by sonication, centrifuged, and the resulting pellet was collected. The homogenized pellet was resuspended in wash buffer (50 mM Tris, pH 8.5, 0.5 M NaCl, 5 mM EDTA, 0.5 mM DTT, 0.5 mM PMSF, protease inhibitor cocktail) and collected by centrifugation. Inclusion body dissolution was then conducted as previously reported (PNAS 112(9) (2015) 2894-2899; www.pnas.org/cgi/doi/10.1073/pnas.1421953112; herein incorporated by reference in its entirety). The solubilized APOL1 protein was applied to a nickel column (HisTrap, GE Life Sciences) preequilibrated in buffer A (50 mM Tris, pH 8.5, 0.15 M NaCl, 1% zwittergent 3-14, protease inhibitor cocktail). The resin was washed with buffer B (50 mM Tris, pH 8.5, 0.15 M NaCl, 0.1% DDM) and TEV cleavage was conducted on column overnight. Afterwards, the column was washed with buffer B, followed by His-washing buffer (50 mM Tris, pH 8.5, 0.15 M NaCl, 0.1% DDM, 10 mM imidazole). The protein was then removed from the resin using His-elution buffer (50 mM Tris, pH 8.5, 0.15 M NaCl, 0.1% DDM, 250 mM imidazole). The sample was further purified by size exclusion chromatography using a Superdex 200 Increase column (GE Life Sciences) in 50 mM Tris, pH 8.5, 0.15 M NaCl, and 0.1% DDM buffer. All APOL1 proteins (G0, G1, and G2) were generated at Viva Biotech (Shanghai) Ltd.
(§3) Modified HMI-9 media preparation (https://tryps.rockefeller.edu/trypsru2_culture_media_preparation.html; herein incorporated by reference in its entirety). Trypanosomes were cultured in modified HMI-9 media consisting of IMDM (ThermoFisher, 12440053), 10% heat-inactivated FBS (Gibco, 10082-147), 10% Serum Plus (Sigma-Aldrich, 14008C), 1×HMI-9 supplement stock, and 1% hypoxanthine stock. The 10×HMI-9 supplement stock was made by dissolving 280 mg bathocuproine disulfonic acid (Sigma-Aldrich, 146625), 1820 mg cysteine (add after bathocuproine) (Sigma-Aldrich, 30089), 1100 mg pyruvic acid (Sigma-Aldrich, 107360), 100 mg uracil (Sigma-Aldrich, U0750), 100 mg cytosine (Sigma-Aldrich, C3506) and 140 μL 2-mercaptoethanol (Sigma-Aldrich, M3148) in 1000 mL of water. The resulting solution was aliquoted and stored at −20° C. The hypoxanthine stock was made by dissolving 4 g of NaOH into 1000 mL of water. Afterwards, 13.6 g hypoxanthine (Sigma-Aldrich, H9377) was added to this mixture. The resulting solution was aliquoted and stored at −20° C.
(§4) Assay Setup. Trypanosoma brucei Lister 427 VSG221 (ATCC, PRA-382) cells were cultured in modified HMI-9 media. All experiments were performed in 384-well, white, solid bottom, tissue culture treated plates (Greiner, 781080). Assay ready plates were generated with duplicate 11-point compound dilution series that consisted of 2-fold stepwise dilutions (0.4% DMSO final). To each well, was added 20 μL of 2 μg/mL of APOL1 G0, G1, or G2 recombinant protein in modified HMI-9 media using a MultiDrop Combi (final APOL1 protein concentration=[…]). Trypanosomes were counted using a hemacytometer and diluted in modified HMI-9 media to a concentration of 1.25×10^4 cell/mL. […]

For experiment [4], the system named is Trypanosoma brucei Lister 427 VSG221 with APOL1 G1 recombinant protein. The experiment is described as follows: APOL1 G1 trypanosome cell rescue assay (Example B5). To be noted: geometric mean of at least 2 assay runs, † = single assay run. Here is the method:
as §1, §2, §3, §4

For experiment [5], the system named is Trypanosoma brucei Lister 427 VSG221 with APOL1 G2 recombinant protein. In words: APOL1 G2 trypanosome cell rescue assay (Example B5). To be noted: geometric mean of at least 2 assay runs, † = single assay run. The procedure:
as §1, §2, §3, §4

[6] abbreviates: Homo sapiens, HEK293, HEK293 overexpressing APOL1 G2.
Setting [7] is: Homo sapiens, HEK293, HEK293 clonal line overexpressing APOL1 G1.
The mark [8] stands for this setting: Trypanosoma brucei, 20 h, read-out: APOL1 G0 Trypanosome Rescue EC50, Trypanosoma brucei Lister 427 VSG221 with APOL1 G0 recombinant protein, 20 hours, CellTiter-Glo.
Setting [9] is: Trypanosoma brucei, 20 h, read-out: APOL1 G1 Trypanosome Rescue EC50, Trypanosoma brucei Lister 427 VSG221 with APOL1 G1 recombinant protein, 20 hours, CellTiter-Glo.
[10] abbreviates: Trypanosoma brucei, 20 h, read-out: APOL1 G2 Trypanosome Rescue EC50, Trypanosoma brucei Lister 427 VSG221 with APOL1 G2 recombinant protein, 20 hours, CellTiter-Glo.
Setting [11] is: HEK293 clonal line overexpressing APOL1 G1.
[12] abbreviates: read-out: APOL1 G0 Trypanosome Rescue EC50, Trypanosoma brucei Lister 427 VSG221 with APOL1 G0 recombinant protein, 20 hours, CellTiter-Glo.
Setting [13] is: read-out: APOL1 G1 Trypanosome Rescue EC50, Trypanosoma brucei Lister 427 VSG221 with APOL1 G1 recombinant protein, 20 hours, CellTiter-Glo.
Setting [14] is: read-out: APOL1 G2 Trypanosome Rescue EC50, Trypanosoma brucei Lister 427 VSG221 with APOL1 G2 recombinant protein, 20 hours, CellTiter-Glo.

The structures appear in SMILES notation. Where two headings read alike, the source gives them in different places.

The EC50 is the concentration needed to bring the measured effect to its halfway point. In the case of `CC(=O)c1ncc(OCCN2CCC3(CC2)C(=O)Nc2ccc(C(F)F)cc23)cc1C(F)(F)F` [Compound 295, 1′-(2-{[6-acetyl-5-(trifluoromethyl)pyridin-3-yl]oxy}ethyl)-5-(difluoromethyl)-1,2-dihydrospiro[indole-3,4′-piperidin]-2-one], the EC50 in experiment [1] (setting [6]) was 43.6 nM; in experiment [2] (setting [7]), 112 nM; in experiment [3] (setting [8]) it was 32.6 nM; in experiment [4] (setting [9]) it was 40.2 nM; in experiment [5] (setting [10]), 11.1 nM.

As to `CC1(O)CC(CN2C(=O)CCc3cc(OCCN4CCC5(CC4)C(=O)Nc4ccc(C(F)F)cc45)cnc32)C1` (single isomer, unassigned) [Compound 311, 5-(difluoromethyl)-1′-{2-[(7-oxo-8-{[(cis) or (trans)-3-hydroxy-3-methylcyclobutyl]methyl}-5,6,7,8-tetrahydro-1,8-naphthyridin-3-yl)oxy]ethyl}-1,2-dihydrospiro[indole-3,4′-piperidin]-2-one], the EC50 in experiment [1] (setting [6]) was 38.3 nM; in experiment [2] (setting [7]), 100 nM; in experiment [3] (setting [8]), 37.4 nM; in experiment [4] (setting [9]), 50.3 nM; in experiment [5] (setting [10]) it was 13.8 nM.

In the case of `C[C@]1(O)C[C@@H](n2cnc3cc(OCCN4CCC5(CC4)C(=O)Nc4ccc(Cl)cc45)cnc32)C1` [Compound 367, 5-chloro-1′-[2-({3-[(cis)-3-hydroxy-3-methylcyclobutyl]-3H-imidazo[4,5-b]pyridin-6-yl}oxy)ethyl]-1,2-dihydrospiro[indole-3,4′-piperidin]-2-one], the EC50 in experiment [1] (setting [6]) was 87.7 nM; in experiment [2] (setting [7]), 145 nM; in experiment [3] (setting [8]), 231 nM; in experiment [4] (setting [9]), 323 nM; in experiment [5] (setting [10]), 106 nM.

As to `C[C@]1(O)C[C@@H](N2C(=O)CCc3cc(OCCN4CCC5(CC4)C(=O)Nc4ccc(C#N)cc45)cnc32)C1` [Compound 404, 2-oxo-1′-[2-({7-oxo-8-[(cis)-3-hydroxy-3-methylcyclobutyl]-5,6,7,8-tetrahydro-1,8-naphthyridin-3-yl}oxy)ethyl]-1,2-dihydrospiro[indole-3,4′-piperidine]-5-carbonitrile], the EC50 in experiment [1] (setting [6]) was 129 nM; in experiment [2] (setting [7]), 247 nM; in experiment [3] (setting [8]) it was 425 nM; in experiment [4] (setting [9]), 554 nM; in experiment [5] (setting [10]), 210 nM.

Turning to `CC(CO)(c1ncc(OCCN2CCC3(CC2)C(=O)Nc2ccc(Cl)cc23)cc1C(F)(F)F)S(C)(=O)=O` (single isomer, unassigned) [Compound 402, 5-chloro-1′-[2-({6-[(2S or 2R)-1-hydroxy-2-methanesulfonylpropan-2-yl]-5-(trifluoromethyl)pyridin-3-yl}oxy)ethyl]-1,2-dihydrospiro[indole-3,4′-piperidin]-2-one], the EC50 in experiment [1] (HEK293 overexpressing APOL1 G2) is 23.8 nM; in experiment [2] (setting [11]), 35.7 nM; in experiment [3] (setting [8]), 33.6 nM; in experiment [4] (setting [9]), 42.7 nM; in experiment [5] (setting [10]), 16.5 nM.

Turning to `O=C1Nc2ccc(Cl)cc2C12CCN(CCOc1cnc(C3(O)CC3)nc1)CC2` [Compound 308, 5-chloro-1′-(2-{[2-(1-hydroxycyclopropyl)pyrimidin-5-yl]oxy}ethyl)-1,2-dihydrospiro[indole-3,4′-piperidin]-2-one], the EC50 in experiment [1] (setting [6]) was 112 nM; in experiment [2] (setting [7]), 196 nM; in experiment [3] (setting [8]) it was 335 nM; in experiment [4] (setting [9]), 435 nM; in experiment [5] (setting [10]), 150 nM.

Regarding `CN1C(=O)C2(CCN(CCOc3ccc(C4(S(C)(=O)=O)CC(O)C4)cc3)CC2)c2cc(C(F)F)ccc21` (single isomer, unassigned) [Compound 279, 5-(difluoromethyl)-1-methyl-1′-(2-{4-[(trans) or (cis)-3-hydroxy-1-methanesulfonylcyclobutyl]phenoxy}ethyl)-1,2-dihydrospiro[indole-3,4′-piperidin]-2-one], the EC50 is 60 nM in experiment [1] (HEK293 overexpressing APOL1 G2); 234 nM in experiment [2] (setting [11]); 213 nM in experiment [3] (setting [12]); 283 nM in experiment [4] (setting [13]); 83.1 nM in experiment [5] (setting [14]).

Take `CC1(O)CC(c2ncc(OCCN3CCC4(CC3)C(=O)Nc3ccc(Cl)cc34)cn2)C1` (single isomer, unassigned) [Compound 392, 5-chloro-1′-[2-({2-[(trans) or (cis)-3-hydroxy-3-methylcyclobutyl)pyrimidin-5-yl}oxy)ethyl]-1,2-dihydrospiro[indole-3,4′-piperidin]-2-one]: the EC50 in experiment [1] (HEK293 overexpressing APOL1 G2) was 27.1 nM; in experiment [2] (setting [7]), 89.9 nM; in experiment [3] (setting [12]), 70 nM; in experiment [4] (setting [13]), 79.4 nM; in experiment [5] (setting [14]) it was 28.5 nM.

In the case of `C[C@]1(O)C[C@@H](n2c(=O)n(CO)c3cc(OCCN4CCC5(CC4)C(=O)Nc4ccc(Cl)cc45)cc(C(F)(F)F)c32)C1` [Compound 467, 5-chloro-1′-(2-{[3-(hydroxymethyl)-2-oxo-1-[(cis)-3-hydroxy-3-methylcyclobutyl]-7-(trifluoromethyl)-2,3-dihydro-1H-1,3-benzodiazol-5-yl]oxy}ethyl)-1,2-dihydrospiro[indole-3,4′-piperidin]-2-one], the EC50 was 4.74 nM in experiment [1] (setting [6]); 14.3 nM in experiment [2] (setting [7]); 3.74 nM in experiment [3] (setting [8]); 6.03 nM in experiment [4] (setting [9]); 2.24 nM in experiment [5] (setting [10]).
